According to ChEMBL document CHEMBL4393657, “Tetrazole hybrids and their antifungal activities” (2019):
≈ marks a conversion by molar mass, not a printed value.

Legend:
Format in all cases: functional
Staphylococcus aureus [1] = experiment: Antifungal activity against methicillin-resistant Staphylococcus aureus after 24 hrs by broth microdilution assay
Candida albicans [2] = experiment: Antifungal activity against Candida albicans
Nakaseomyces glabratus [3] = experiment: Antifungal activity against Candida glabrata ATCC 36583 by broth microdilution method
Candida tropicalis [4] = experiment: Antifungal activity against Candida tropicalis by broth microdilution method
Candida albicans [5] = experiment: Antifungal activity against Candida albicans NCCS 3471 assessed as inhibition zone at 50 ug/ml by disk diffusion method; conditions: read-out: IZ
Aspergillus niger [6] = experiment: Antifungal activity against Aspergillus niger assessed as inhibition zone at 50 ug/ml by disk diffusion method; conditions: read-out: IZ
Candida albicans [7] = experiment: Antifungal activity against Candida albicans NCCS 3471 assessed as inhibition zone at 10 ug/ml incubated for 3 to 4 days by disk diffusion method; conditions: read-out: IZ
Aspergillus fumigatus [8] = experiment: Antifungal activity against Aspergillus fumigatus NCIM 902 assessed as inhibition zone at 10 ug/ml incubated for 3 to 4 days by disk diffusion method; conditions: read-out: IZ
Cryptococcus neoformans = experiment: Antifungal activity against Cryptococcus neoformans LA314 assessed as reduction in fungal cell growth incubated for 48 hrs by broth microdilution method; conditions: LA314, 48 h
Nakaseomyces glabratus [9] = experiment: Antifungal activity against Candida glabrata assessed as reduction in fungal cell growth incubated for 48 hrs by broth microdilution method
Candida parapsilosis = experiment: Antifungal activity against Candida parapsilosis ATCC 22019 assessed as reduction in fungal cell growth incubated for 48 hrs by broth microdilution method; conditions: Lodderomyces parapsilosis, ATCC 22019, 48 h
Pichia kudriavzevii [10] = experiment: Antifungal activity against Candida krusei assessed as reduction in fungal cell growth incubated for 48 hrs by broth microdilution method
Candida tropicalis [11] = experiment: Antifungal activity against Candida tropicalis assessed as reduction in fungal cell growth incubated for 48 hrs by broth microdilution method
Aspergillus niger [12] = experiment: Antifungal activity against Aspergillus niger assessed as reduction in fungal cell growth incubated for 72 hrs by broth microdilution method
Candida albicans [13] = experiment: Antifungal activity against Candida albicans V-01-191A-261 assessed as reduction in fungal cell growth incubated for 48 hrs by broth microdilution method; conditions: V-01-191A-261, 48 h
Candida albicans [14] = experiment: Antifungal activity against Candida albicans TA
Candida albicans [15] = experiment: In vivo antifungal activity against Candida albicans TA infected in CDF-1 mouse dosed orally assessed as survival of mouse; conditions: po
Aspergillus flavus [16] = experiment: Antifungal activity against Aspergillus flavus assessed as inhibition zone at 20 ug/ml by disk diffusion method; conditions: read-out: IZ
Aspergillus fumigatus [17] = experiment: Antifungal activity against Aspergillus fumigatus assessed as inhibition zone at 20 ug/ml by disk diffusion method; conditions: read-out: IZ
Aspergillus niger [18] = experiment: Antifungal activity against Aspergillus niger assessed as inhibition zone at 20 ug/ml by disk diffusion method; conditions: read-out: IZ
Candida albicans [19] = experiment: Antifungal activity against Candida albicans assessed as inhibition zone at 20 ug/ml by disk diffusion method; conditions: read-out: IZ
Candida albicans [20] = experiment: Antifungal activity against Candida albicans assessed as reduction in fungal cell growth incubated for 24 hrs by broth microdilution method
Nakaseomyces glabratus [21] = experiment: Antifungal activity against Candida glabrata assessed as reduction in fungal cell growth incubated for 24 hrs by broth microdilution method
Pichia kudriavzevii [22] = experiment: Antifungal activity against Candida krusei assessed as reduction in fungal cell growth incubated for 24 hrs by broth microdilution method
Candida tropicalis [23] = experiment: Antifungal activity against Candida tropicalis assessed as reduction in fungal cell growth incubated for 24 hrs by broth microdilution method
Candida albicans [24] = experiment: Antifungal activity against Candida albicans assessed as inhibition zone at 100 ug/ml; conditions: read-out: IZ
Aspergillus niger [25] = experiment: Antifungal activity against Aspergillus niger assessed as inhibition zone at 100 ug/ml; conditions: read-out: IZ
Candida albicans [26] = experiment: Antifungal activity against Candida albicans assessed as reduction in fungal cell growth incubated for 48 hrs by broth microdilution susceptibility method
Aspergillus niger [27] = experiment: Antifungal activity against Aspergillus niger assessed as reduction in fungal cell growth incubated for 48 hrs by broth microdilution susceptibility method
Candida albicans [28] = experiment: Antifungal activity against Candida albicans assessed as reduction in fungal cell growth incubated for 24 and 72 hrs by cup plate method
Aspergillus flavus [29] = experiment: Antifungal activity against Aspergillus flavus assessed as reduction in fungal cell growth incubated for 24 and 72 hrs by cup plate method
Candida albicans [30] = experiment: Antifungal activity against Candida albicans assessed as inhibition zone at 125 ug/ml by disk diffusion method; conditions: read-out: IZ
Aspergillus fumigatus [31] = experiment: Antifungal activity against Aspergillus fumigatus assessed as reduction in fungal cell growth incubated for 48 hrs by broth microdilution method
Aspergillus niger [32] = experiment: Antifungal activity against Aspergillus niger assessed as reduction in fungal cell growth incubated for 48 hrs by broth microdilution method
Staphylococcus aureus [33] = experiment: Potency index, ratio for MIC of methicillin to MIC of compound for […] incubated for 24 hrs by broth microdilution method
Aspergillus niger [34] = experiment: Potency index, ratio for MIC of fluconazole to MIC of compound for antifungal activity against Aspergillus niger
Saccharomyces cerevisiae = experiment: Potency index, ratio for MIC of fluconazole to MIC of compound for antifungal activity against Saccharomyces cerevisiae
Aspergillus fumigatus [35] = experiment: Potency index, ratio for MIC of fluconazole to MIC of compound for antifungal activity against Aspergillus fumigatus
Alternaria solani = experiment: Antifungal activity against Alternaria solani assessed as inhibition of growth at 50 ug/ml; conditions: read-out: GI
Botrytis cinerea = experiment: Antifungal activity against Botrytis cinerea assessed as inhibition of growth at 50 ug/ml; conditions: read-out: GI
Mycosphaerella arachidis = experiment: Antifungal activity against Cercospora arachidicola assessed as inhibition of growth at 50 ug/ml; conditions: read-out: GI
Fusarium graminearum = experiment: Antifungal activity against Gibberella zeae assessed as inhibition of growth at 50 ug/ml; conditions: read-out: GI
Phytophthora infestans = experiment: Antifungal activity against Phytophthora infestans assessed as inhibition of growth at 50 ug/ml; conditions: read-out: GI
[36] = system: Botryosphaeria berengeriana; experiment: Antifungal activity against Physalospora pyricola assessed as inhibition of growth at 50 ug/ml; conditions: read-out: GI
[37] = Antifungal activity against Pellicularia sasakii assessed as inhibition of growth at 50 ug/ml; conditions: read-out: GI
Sclerotinia sclerotiorum = experiment: Antifungal activity against Sclerotinia sclerotiorum assessed as inhibition of growth at 50 ug/ml; conditions: read-out: GI
Ceratobasidium cereale = experiment: Antifungal activity against Rhizoctonia cerealis assessed as inhibition of growth at 50 ug/ml; conditions: read-out: GI

Work on COc1cccc(OC)c1C(=O)N[C@@H]1C(=O)N2[C@@H]1SC(C)(C)[C@@H]2C(=O)O [METHICILLIN] yielded an MIC (Staphylococcus aureus [1]) of over 250 µg/mL.
For CC(=O)N1CCN(c2ccc(OCC3COC(Cn4ccnc4)(c4ccc(Cl)cc4Cl)O3)cc2)CC1 (stereo not drawn) [KETOCONAZOLE], the MIC (Candida albicans [2]) was 25 to 50 µg/mL (≈ 47 to 94.1 µM), the MIC (Nakaseomyces glabratus [3]) was 25 to 50 µg/mL (≈ 47 to 94.1 µM) and the MIC (Candida tropicalis [4]) was 25 to 50 µg/mL (≈ 47 to 94.1 µM). It also gave a zone of inhibition at 50 µg/mL (Candida albicans [5]) of 26 mm, a zone of inhibition at 50 µg/mL (Aspergillus niger [6]) of 23 mm and a zone of inhibition at 10 µg/mL (Candida albicans [7]) of 24 mm. The zone of inhibition at 10 µg/mL (Aspergillus fumigatus [8]) was 23 mm.
In the case of OC(Cn1cncn1)(Cn1cncn1)c1ccc(F)cc1F [FLUCONAZOLE], the MIC (Cryptococcus neoformans) is reported as 2 to 8 µg/mL (≈ 6.53 to 26.1 µM), the MIC (Nakaseomyces glabratus [9]) is reported as 2 to 8 µg/mL (≈ 6.53 to 26.1 µM) and the MIC (Candida parapsilosis) is reported as 2 to 8 µg/mL (≈ 6.53 to 26.1 µM). It also gave an MIC (Pichia kudriavzevii [10]) of 2 to 8 µg/mL (≈ 6.53 to 26.1 µM), an MIC (Candida tropicalis [11]) of 2 to 8 µg/mL (≈ 6.53 to 26.1 µM) and an MIC (Aspergillus niger [12]) of 2 to 8 µg/mL (≈ 6.53 to 26.1 µM). The MIC (Candida albicans [13]) was 2 to 8 µg/mL (≈ 6.53 to 26.1 µM), the MIC (Candida albicans [14]) was 100 µg/mL (≈ 327 µM) and the ED50 (Candida albicans [15]) was 0.29 to 0.35 mg/kg. For the same compound, the zone of inhibition at 20 µg/mL (Aspergillus flavus [16]) was 19 to 22 mm, the zone of inhibition at 20 µg/mL (Aspergillus fumigatus [17]) was 19 to 22 mm and the zone of inhibition at 20 µg/mL (Aspergillus niger [18]) was 19 to 22 mm. It also gave a zone of inhibition at 20 µg/mL (Candida albicans [19]) of 19 to 22 mm, an MIC (Candida albicans [20]) of 1 to 4 µg/mL (≈ 3.27 to 13.1 µM) and an MIC (Nakaseomyces glabratus [21]) of 1 to 4 µg/mL (≈ 3.27 to 13.1 µM). For the same compound, the MIC (Pichia kudriavzevii [22]) was 1 to 4 µg/mL (≈ 3.27 to 13.1 µM), the MIC (Candida tropicalis [23]) was 1 to 4 µg/mL (≈ 3.27 to 13.1 µM) and the zone of inhibition at 100 µg/mL (Candida albicans [24]) was 22 to 25 mm. The zone of inhibition at 100 µg/mL (Aspergillus niger [25]) was 22 to 25 mm, the MIC (Candida albicans [26]) was 6.25 µg/mL (≈ 20.4 µM) and the MIC (Aspergillus niger [27]) was 6.25 µg/mL (≈ 20.4 µM). The MIC (Candida albicans [28]) was 25 µg/mL (≈ 81.6 µM), the MIC (Aspergillus flavus [29]) was 25 µg/mL (≈ 81.6 µM) and the zone of inhibition at 125 µg/mL (Candida albicans [30]) was 14 mm. For the same compound, the MIC (Aspergillus fumigatus [31]) was 2.5 µg/mL (≈ 8.16 µM) and the MIC (Aspergillus niger [32]) was 0.625 to 6.25 µg/mL (≈ 2.04 to 20.4 µM).
In the case of FC(F)(F)c1cc(-c2ccc(I)cc2)nc2nnnn12, the MIC (Candida albicans [20]) is reported as 62.5 µg/mL (≈ 160 µM) and the Ratio (Staphylococcus aureus [33]) is reported as over 64.
With Nc1nc(-c2ccc(-n3cnnn3)cc2)cc(-c2ccc(OC(F)F)c(O)c2)n1 the Ratio (Aspergillus niger [34]) was “>=2”, the Ratio (Saccharomyces cerevisiae) was “>=2” and the Ratio (Aspergillus fumigatus [35]) was “>=2”.
With Cc1snnc1C(Nc1ccc([N+](=O)[O-])cc1)c1nnnn1C1CCCCC1 (stereo not drawn) the inhibition of growth at 50 µg/mL (Alternaria solani) was 20 to 65.4%, the inhibition of growth at 50 µg/mL (Botrytis cinerea) was 20 to 65.4% and the inhibition of growth at 50 µg/mL (Mycosphaerella arachidis) was 20 to 65.4%. It also gave an inhibition of growth at 50 µg/mL (Fusarium graminearum) of 20 to 65.4%, an inhibition of growth at 50 µg/mL (Phytophthora infestans) of 20 to 65.4% and an inhibition of growth at 50 µg/mL [36] of 20 to 65.4%. The inhibition of growth at 50 µg/mL [37] was 20 to 65.4%, the inhibition of growth at 50 µg/mL (Sclerotinia sclerotiorum) was 20 to 65.4% and the inhibition of growth at 50 µg/mL (Ceratobasidium cereale) was 20 to 65.4%.
